According to patent US10245238B2, “Composition for oral intake” (THERAVALUES CORPORATION, priority 2014, dated 2019):

Assay: Oral absorbability of various complexes: curcumin concentration in blood plasma after forced oral administration
Assay type: in vivo
Conditions: SD rats, curcumin dose 10 mg/kg
Procedure: (Oral Absorbability of Various Complexes)
For the test animal, 6-week old SD rats (male, body weight: 170 g to 260 g, Charles River Laboratories Japan, Inc.) were used.
In regard to the administration method, the various complexes (Examples 1 to 13) produced as described above were each added to water for injection in a predetermined amount, subsequently the mixture was made up to 20 mL so as to obtain a curcumin concentration of 1 mg/mL, the mixture was mixed using an ultrasonic generator, and the mixture was forcibly orally administered to test animals (n 3 or 5) that had been fasted for 12 hours or longer before administration, using a feeding needle, such that the curcumin dose would be 10 mg/kg (Administration Test Examples 1 to 13) or 50 mg/kg (Administration Test Example 14).
Meanwhile, the cases of administering curcumin base powder (Comparative Test Example 1); physical mixture obtained by simply physically mixing curcumin base powder and hydroxypropylmethyl cellulose powder or hydroxypropyl cellulose powder (curcumin:HPMC=1:3 or curcumin HPC=1:3) (Comparative Test Examples 2 and 3); or CR-031P powder (manufactured by Theravalues Corp.), which is a turmeric dye composition obtained by combining micronized curcuminoid with gum ghatti (Comparative Test Examples 4 and 5) was designated as controls.
For the measurement of the concentration of curcumin and/or an analog thereof in blood plasma, measurement was made by the following method, using heparinized blood plasma obtained by collecting about 0.5 mL of blood from the jugular vein of the test animals without anesthesia, after 30 minutes, 1 hour, and 2 hours from the initiation of administration.
100 μL of 0.1 M acetate buffer solution (pH 5.0) and 10 μL of β-glucuronidase solution (about 68,000 units/mL) were added to 20 μL of the collected blood plasma, and the mixture was maintained for 1 hour at 37° C. Subsequently, 10 μL of 50% (v/v) methanol including 20 ng/mL of mepronil, which was an internal standard liquid, and 0.5 mL of chloroform were added thereto, the mixture was stirred for 1 minute using a vortex mixer, and then the mixture was mixed for 15 minutes using an ultrasonic generator. An extraction-treated liquid thus prepared was separated into chloroform layer and an aqueous layer by centrifugation (13,000×g, for 5 minutes, at room temperature). This extraction treatment was repeated two times. Subsequently, the chloroform layer was collected, and the solvent was distilled off from this layer using a vacuum centrifugal concentrator to solid-dry the chloroform layer. 100 μL of 50% (v/v) methanol was added thereto, and then the mixture was centrifuged (13,000×g, for 5 minutes, at room temperature) to collect the supernatant.
2 μL of the supernatant produced as described above was subjected to an analysis using LC-MS/MS (manufactured by Shimadzu Corp.), and thereby the curcumin concentration in the blood plasma was measured. The conditions for the LC-MS/MS analysis were set such that the LC column was ATLANTIS T3 (2.1×150 mm, 3 μm, manufactured by Waters Corp.), the column temperature was 40° C., the flow rate was 0.2 mL/min, and the mobile phase included A: 0.1% aqueous solution of formic acid, and B: 0.1% formic acid/acetonitrile, and gradient elution was performed under the following conditions. […]

AUC (0 to 2 h): 33.9 ng/mL · 0-2 h | Cmax (male, rat, plasma): 49.8 ng/mL | concentration at 0.5 h (male, rat, plasma, 0.5 h after administration): 7.8 ng/mL | concentration at 1 h (male, rat, plasma, 1 h after administration): 17.2 ng/mL | concentration at 2 h (male, rat, plasma, 2 h after administration): 34.2 ng/mL
Compound: COc1cc(/C=C/C(=O)/C=C(O)/C=C/c2ccc(O)c(OC)c2)ccc1O [Curcumin base powder, curcumin]
